# Experimental data reported in the supplement of paper PMC10307832.
# Columns and labels:
# Experiment in all cases: relative viability (nuclei count vs DMSO), 5 days (fraction); higher = more cells survive
# [1] = compound: C1CSC2=C(C(=O)N1)SC3=C2C=C(C=C3)O [kb NB 142-70] + N=C(N)NC(=N)NCCc1ccccc1 [Phenformin] (partner 250 µM)
# Method in brief: (§1)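 One day after seeding in 1536-well plates, lung cancer cell lines were dosed by pin tool. Dosing was either single-drug or a fixed anchor-drug dose plus five library-drug doses (not always all listed) in √10 steps. After 5 days, nuclei were stained in one fix-and-stain step and counted on 4× images, and relative viability is the nuclei count of treated wells over that of vehicle wells, given as the median of duplicate plates.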
# [2] = compound: NCC(=O)Nc1ccc(-n2nc(C(F)(F)F)cc2-c2ccc3c(ccc4ccccc43)c2)cc1 + N=C(N)NC(=N)NCCc1ccccc1 [Phenformin] (partner 250 µM)
# Method in brief: as §1
# [3] = compound: NCC(=O)Nc1ccc(-n2nc(C(F)(F)F)cc2-c2ccc3c(ccc4ccccc43)c2)cc1
# Method in brief: (§2)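 Lung cancer cell lines in 1536-well plates were kept overnight at 37 °C, then pinned with five library-drug doses (not always all listed) spaced by √10 on vehicle-anchored plates. After 5 days without medium change, cells were fixed, permeabilised and Hoechst-stained in one step, imaged at 4×, and nuclei were counted with MetaXpress. Viability is treated-well nuclei divided by vehicle-well nuclei, taken as the median over plates. Plates passed only with control CV below 25% and at least one doubling.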
# kb NB 142-70 = compound: C1CSC2=C(C(=O)N1)SC3=C2C=C(C=C3)O [kb NB 142-70]
# Method in brief: as §2
# [4] = compound: C1CSC2=C(C(=O)N1)SC3=C2C=C(C=C3)O [kb NB 142-70] + CC1(C)CCC(c2ccc(Cl)cc2)=C(CN2CCN(c3ccc(C(=O)NS(=O)(=O)c4ccc(N[C@H](CCN5CCOCC5)CSc5ccccc5)c(S(=O)(=O)C(F)(F)F)c4)cc3)CC2)C1 [Navitoclax] (partner 0.5 µM)
# Method in brief: as §1
Cell Line,relative viability ([1]; first compound 0.1 µM),relative viability ([1]; first compound 1 µM),relative viability ([1]; first compound 3.162 µM),relative viability ([2]; first compound 0.02 µM),relative viability ([2]; first compound 0.06325 µM),relative viability ([2]; first compound 0.2 µM),relative viability ([2]; first compound 0.6325 µM),relative viability ([2]; first compound 2 µM),relative viability ([3]; 0.02 µM),relative viability ([3]; 0.06325 µM),relative viability ([3]; 0.2 µM),relative viability ([3]; 0.6325 µM),relative viability ([3]; 2 µM),relative viability (kb NB 142-70; 0.1 µM),relative viability (kb NB 142-70; 1 µM),relative viability (kb NB 142-70; 3.162 µM),relative viability ([4]; first compound 0.1 µM),relative viability ([4]; first compound 1 µM),relative viability ([4]; first compound 3.162 µM)
NCI-H2342,0.615,0.619,0.502,0.685,0.582,0.733,0.515,0.537,0.93,1.01,0.988,0.986,0.911,0.897,0.972,0.912,–,–,–
HCC-15,0.476,0.491,0.518,0.438,0.497,0.476,0.497,0.506,1,1.06,0.963,1.03,1.02,1.03,1,0.978,0.683,0.683,0.609
A-427,0.466,0.37,0.248,–,0.411,0.315,0.334,0.352,0.766,1.06,0.998,0.994,1.03,1.04,1,0.969,1.03,1.07,0.962
NCI-H2228,0.263,0.317,0.178,0.432,0.484,0.352,0.266,0.31,1,1.04,1.1,1.03,0.797,1.04,1.33,0.699,0.853,0.992,0.244
NCI-H1734,0.371,0.346,0.267,0.421,0.365,0.414,0.422,0.395,0.931,1.06,0.955,0.966,0.928,1.04,0.774,0.517,0.794,0.706,0.431
PC-14,0.658,0.56,0.619,0.553,0.64,0.543,0.57,0.642,1.05,1.06,0.954,0.964,1.02,0.958,0.973,0.954,0.977,1.06,0.96
NCI-H1915,0.365,0.359,0.258,0.367,0.364,0.371,0.349,0.369,0.86,1.02,0.978,0.963,0.989,1.04,0.978,0.742,0.793,0.739,0.519
NCI-H1666,0.558,0.526,0.467,0.552,0.566,0.539,0.586,0.579,1.05,0.986,1.01,0.961,0.987,0.951,1.01,0.922,1.08,1.04,0.858
HCC-366,0.637,0.588,0.604,0.589,0.649,0.595,0.625,0.596,1.01,1.07,1,1.01,0.934,1.01,0.976,0.927,1.03,1.13,0.823
SK-MES-1,0.754,0.658,0.407,0.707,0.705,0.662,0.666,0.704,1.04,1.01,1.06,1.01,1.03,1.01,1.13,0.734,1.21,1.27,0.658
SW 1573,0.378,0.264,0.175,0.394,0.356,0.383,0.401,0.366,0.94,1.01,1.03,0.971,0.877,1.02,0.84,0.535,0.954,0.878,0.561
NCI-H661,0.286,0.263,0.247,0.267,0.259,0.268,0.295,0.27,1.03,0.96,0.973,0.963,1.02,0.969,0.934,0.919,–,–,–
PC-3 [JPC-3],0.475,0.472,0.474,0.497,0.486,0.439,0.485,0.492,0.996,1.08,1.01,1.02,1.14,1,1.07,1.05,0.745,0.807,0.871
NCI-H1623,0.599,0.617,0.591,0.604,0.671,0.6,0.577,0.555,1.05,1.02,0.943,0.923,1.01,0.98,1.01,0.951,–,–,–
